The values below come from US10214779B2, “Method for identification of anti-HIV human miRNA mimics and miRNA inhibitors and anti-HIV pharmaceutical compounds” (CSIR, priority 2013, dated 2019).

Structures can show the parent of a compound that is named as a salt. *1 amine or outer side, *2 acyl side, *3 side chain or, on linkers, in order; H or OH if unused. Where a SMILES comes first, the peptide text is derived from it. Bridges are numbered along the chain shown (N, C = ends). Roman numbers before positions name the chains, in order. [ ]: non-standard residue; d: D form. Actinocin(9to1) = Cc1c2oc3c(C)ccc(C(=O)[*:1])c3nc-2c(C(=O)[*:2])c(N)c1=O; NMeV = CN[C@H](C(=O)O)C(C)C; Sar = CNCC(=O)O

One test has as its target T1, Aurora A (Homo sapiens, UniProt O14965).
T1 sequence (O14965 1-403): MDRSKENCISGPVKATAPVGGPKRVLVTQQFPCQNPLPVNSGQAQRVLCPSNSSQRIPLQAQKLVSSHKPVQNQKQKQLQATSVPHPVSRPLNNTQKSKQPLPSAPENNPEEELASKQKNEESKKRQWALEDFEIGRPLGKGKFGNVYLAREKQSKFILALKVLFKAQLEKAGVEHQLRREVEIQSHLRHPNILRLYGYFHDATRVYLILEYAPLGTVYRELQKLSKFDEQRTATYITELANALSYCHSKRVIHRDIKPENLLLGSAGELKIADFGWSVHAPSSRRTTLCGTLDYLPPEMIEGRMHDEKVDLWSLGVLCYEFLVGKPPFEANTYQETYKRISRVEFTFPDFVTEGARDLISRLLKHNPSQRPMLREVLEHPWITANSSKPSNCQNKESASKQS
Experiment: not given
The settings on record: Aurora A; cited from earlier work.
For the compound `CCN1CCN(C(=O)Cc2ccc(Nc3ncc(F)c(Nc4ccc(C(=O)Nc5ccccc5Cl)cc4)n3)cc2)CC1` [Aurora A inhibitor I], the IC50 (in general, the concentration needed to halve the response being measured) is 0.0034 µM.

Still in this test, the particulars now being: Aurora B / Aurora A selectivity; cited from earlier work.
For the compound `CCN1CCN(C(=O)Cc2ccc(Nc3ncc(F)c(Nc4ccc(C(=O)Nc5ccccc5Cl)cc4)n3)cc2)CC1` [Aurora A inhibitor I], the B/A ratio is reported as 1000.

The subject of a further test is HIV (Subtype B pseudoviral strain, PSGIII) in GHOST(3) cells. As to the kind of experiment: Targeted drug screen, Phenocopy Screen (drug before HIV infection) in GHOST(3) cells. Particulars: 10 uM, added 24 hour prior to exposure to HIV.
Procedure: GHOST(3) cells were seeded in the wells of a 96 well plate 24 hour prior to addition of a specific oncology drug at the appropriate concentration. Twenty-four hours post drug treatment, the drug supplemented media was removed and replaced with infective media containing the Subtype B pseudoviral strain, PSGIII. Cells were infected at an MOI of 0.5. The infective media was removed 48 hour post infection and cells were processed for imaging as previously described (See Sample Preparation).
Four fields of view (100 um apart) were acquired from the central region of each well imaged. […] Wells were imaged using the 20× ewld objective on the Image Xpress Ultra automated confocal microscope system (Molecular Devices). The imaging parameters were kept constant for all replicates of both miRNA and targeted drug/compound screens.
`Cc1nnc(C(=O)NC(C)(C)c2nc(C(=O)NCc3ccc(F)cc3)c(O)c(=O)n2C)o1` [Raltegravir]: the “HIV replication (positive control phenotype)” value was “suppressed HIV replication”.

Staying with this test, now noted: drug 24 h before infection, MOI 0.5, 48 hour; screened at 100 nM, 1 uM and 10 uM; GHOST(3) cells.
In the case of `CC1(COc2ccc3c(c2)ncn3-c2ccc3cccc(N4CCC(N)CC4)c3n2)COC1` [Crenolanib (CP-868596), Crenolanib], the “Effect (Phenocopy Screen)” value was “Toxic in response”.

Turning to `COc1ncc(-c2ccc3nccc(-c4ccnnc4)c3c2)cc1NS(=O)(=O)c1ccc(F)cc1F` [GSK2126458], the “Effect (Phenocopy Screen)” value is given as “Suppressed HIV^a”.

Consider `O=C1CCC(N2C(=O)c3ccccc3C2=O)C(=O)N1` (centres unmarked) [Thalidomide], for which the “Effect (Phenocopy Screen)” value is listed as “Suppressed HIV^a”.

In the case of `COC(=O)c1ccc2c(c1)NC(=O)/C2=C(\Nc1ccc(N(C)C(=O)CN2CCN(C)CC2)cc1)c1ccccc1` [BIBF1120 (Vargatef)], the “Effect (Phenocopy Screen)” value is “Suppressed HIV^a”.

Turning to `COc1cc2ncnc(Nc3ccc(F)c(Cl)c3)c2cc1OCCCN1CCOCC1` [Gefitinib], the “Effect (Phenocopy Screen)” value was “Toxic in response”.

Consider `CCN1CCN(C(=O)Cc2ccc(Nc3ncc(F)c(Nc4ccc(C(=O)Nc5ccccc5Cl)cc4)n3)cc2)CC1` [Aurora A inhibitor I], for which the “Effect (Phenocopy Screen)” value is given as “Toxic in response”.

For the compound `CC(C)(C)c1cnc(CSc2cnc(NC(=O)C3CCNCC3)s2)o1` [SNS-032 (BMS-387032)], the “Effect (Phenocopy Screen)” value is “Toxic in response”.

In the case of `C=CC(=O)Nc1cccc(Oc2nc(Nc3ccc(N4CCN(C)CC4)cc3OC)ncc2Cl)c1` [WZ4002], the “Effect (Phenocopy Screen)” value is recorded as “Suppressed HIV^a”.

With `CC[C@]1(O)C[C@H]2CN(CCc3c([nH]c4ccccc34)[C@@](C(=O)OC)(c3cc4c(cc3OC)N(C=O)[C@H]3[C@@](O)(C(=O)OC)[C@H](OC(C)=O)[C@]5(CC)C=CCN6CC[C@]43[C@@H]65)C2)C1` [Vincristine sulfate], the “Effect (Phenocopy Screen)” value is “Suppressed HIV^a”.

Take `Cc1ccc(C(=O)Nc2ccc(CN3CCN(C)CC3)c(C(F)(F)F)c2)cc1C#Cc1cnc2cccnn12` [Ponatinib]: the “Effect (Phenocopy Screen)” value is recorded as “Suppressed HIV^a”.

Consider `Cn1nnc2c(C(N)=O)ncn2c1=O` [Temozolomide], for which the “Effect (Phenocopy Screen)” value is “Suppressed HIV^a”.

`O=C(NC1CCNCC1)c1[nH]ncc1NC(=O)c1c(Cl)cccc1Cl` [AT7519]: the “Effect (Phenocopy Screen)” value is reported as “Toxic in response”.

Take `O=c1[nH]c(=O)n([C@H]2C[C@H](O)[C@@H](CO)O2)cc1F` [Floxuridine]: the “Effect (Phenocopy Screen)” value is “Toxic in response”.

Consider `COc1cc2c(Oc3ccc(NC(=O)C4(C(=O)Nc5ccc(F)cc5)CC4)cc3F)ccnc2cc1OCCCN1CCOCC1` [Foretinib], for which the “Effect (Phenocopy Screen)” value is reported as “Suppressed HIV^a”.

In the case of `Cc1ccc(C(=O)Nc2cccc(C(F)(F)F)c2)cc1Nc1nc(-c2cccnc2)nc2c1cnn2C` [NVP-BHG712], the “Effect (Phenocopy Screen)” value is “Suppressed HIV^a”.

Turning to `O=C(CCCCCCC(=O)Nc1ccccc1)NO` [Vorinostat], the “Effect (Phenocopy Screen)” value is “Toxic in response”.

Turning to `CN1CCN(CCOc2cc(OC3CCOCC3)c3c(Nc4c(Cl)ccc5c4OCO5)ncnc3c2)CC1` [Saracatinib], the “Effect (Phenocopy Screen)” value was “Suppressed HIV^a”.

Consider `c1ccc2c(-c3cnn4cc(-c5ccc(N6CCNCC6)cc5)cnc34)ccnc2c1` [LDN193189], for which the “Effect (Phenocopy Screen)” value was “Toxic in response”.

As for `C#Cc1cccc(Nc2ncnc3cc(OCCOC)c(OCCOC)cc23)c1` [Erlotinib hydrochloride], the “Effect (Phenocopy Screen)” value is reported as “Toxic in response”.

As to `Cc1ccc([N+](=O)[O-])cc1S(=O)(=O)N(C)/N=C/c1cnc2ccc(Br)cn12` [PIK-75], the “Effect (Phenocopy Screen)” value is “Toxic in response”.

A further test deals with Aurora B (Homo sapiens, UniProt Q96GD4).
Sequence of Aurora B (Q96GD4 whole entry): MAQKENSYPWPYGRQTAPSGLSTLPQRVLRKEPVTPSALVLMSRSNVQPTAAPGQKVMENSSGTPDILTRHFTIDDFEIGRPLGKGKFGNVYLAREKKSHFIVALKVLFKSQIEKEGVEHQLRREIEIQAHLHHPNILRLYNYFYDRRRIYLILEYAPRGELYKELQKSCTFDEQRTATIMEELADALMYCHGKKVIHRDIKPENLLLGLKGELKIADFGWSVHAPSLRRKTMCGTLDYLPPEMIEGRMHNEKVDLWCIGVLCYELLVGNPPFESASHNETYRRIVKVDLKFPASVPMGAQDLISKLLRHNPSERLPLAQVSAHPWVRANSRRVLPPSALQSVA
Experiment: not given
The settings on record: cited from earlier work.
For `CCN1CCN(C(=O)Cc2ccc(Nc3ncc(F)c(Nc4ccc(C(=O)Nc5ccccc5Cl)cc4)n3)cc2)CC1` [Aurora A inhibitor I], the IC50 was 3.4 µM.

The test system of a further test is HIV (Subtype B pseudoviral strain, PSGIII) in GHOST(3) cells. As to the kind of experiment: Targeted drug screen, Clearance Screen (drug after HIV infection) in GHOST(3) cells. The class given is cell-based, HIV-1. The settings on record: infection MOI 0.5 for 48 hour, then drug 24 h, screened at 100 nM, 1 uM and 10 uM. As for the experimental part:
A library of 101 Food and Drug Administration (FDA) approved oncology drugs as well as a library of 192 kinase-inhibitor compounds were screened as potential anti-HIV therapeutics using the GHOST(3) reporter cell line. Drugs were screened at 3 different concentrations of 100 nM, 1 uM and 10 uM. Each library was screened in triplicate at each drug concentration and in the following 3 formats:
This screen format was utilised to identify drugs/compounds that were able to suppress HIV replication in host cells already infected by HIV or drugs/compounds that were able to selectively target HIV-infected cells for apoptosis. GHOST(3) cells were seeded in the wells of a 96 well plate 24 hour prior to infection with the Subtype B pseudoviral strain, PSGIII, at an MOI of 0.5. The infective media was then removed 48 hour post infection and replaced with normal culture media supplemented with a drug/compound at the appropriate concentration. Twenty-four hours post drug treatment, cells were processed for imaging as previously described.
This screen format was used as a control to identify drugs that were broadly cytotoxic. […] GHOST(3) cells were seeded in 96 well plates, 24 hr post seeding, drugs were added to culture medium at the required final concentration. Twenty-four hours post drug treatment cells were processed for imaging as described previously.
Subtype B viral stocks were produced by the dual transfection of HEK293T cells with a PSGIII (Subtype B) viral backbone plasmid which lacks an envelope/packaging protein and a second plasmid expressing an HIV-BAL viral envelope protein (Subtype B). Plasmid transfections were conducted using the FuGene 6 lipid-based transfection reagent (Promega) as per the manufacturer's guidelines. Viral titres were determined using a luciferase readout-assay based on the JC53 cell line and the TCID50 calculation method described by Reed and Muench (1938). GHOST(3) cells were exposed to virions at an MOI of 0.5 for both the miRNA and targeted drug/compound screens. Cells were infected in SFM supplemented with 1× Glutamax (Infecting media) as FBS has previously been described to negatively impact the infection efficiency of HIV.
Cells were washed twice in 1×PBS before fixation with a 3.7% Formaldehyde solution for 30 minutes at room temperature. Cells were washed once with 1× PBS before the addition of Hoechst Nuclear stain (Invitrogen) at 2 uM final concentration in 1×PBS for 30 minutes at room temperature. The Hoechst staining solution was aspirated and replaced with 50 uL of 1×PBS solution before imaging.
Four fields of view (100 um apart) were acquired from the central region of each well imaged. Images were acquired in the 405 and 488 fluorescent channels for each field of view. Wells were imaged using the 20× ewld objective on the Image Xpress Ultra automated confocal microscope system (Molecular Devices). The imaging parameters were kept constant for all replicates of both miRNA and targeted drug/compound screens.
Feature extraction algorithms were utilized in order to extract 16 subcellular measurements from the acquired images. These 16 factors are derived from 15 descriptors previously described by Genovesio et al. 2011 to be relevant indicators of the infective state of host cells, with addition of ‘infection efficiency’ as a descriptor of the percentage of infected cells per treatment well.
A bespoke support vector machine-learning (SVML) pattern recognition algorithm was trained to identify phenotypes of interest using the relevant control wells. […] The transfection of siCD4 and Raltegravir treatment were thus utilised in the miRNA and drug/compound screens respectively as positive controls for the inhibition of HIV-1 replication. […]
As to `C[C@@H](CN1CC(=O)NC(=O)C1)N1CC(=O)NC(=O)C1` [Dexrazoxane], the “Effect (Clearance Screen)” value is listed as “Suppressed HIV^b”.

Take `Cc1c2oc3c(C)ccc(C(=O)N[C@@H]4C(=O)N[C@H](C(C)C)C(=O)N5CCC[C@H]5C(=O)N(C)CC(=O)N(C)[C@@H](C(C)C)C(=O)O[C@@H]4C)c3nc-2c(C(=O)N[C@@H]2C(=O)N[C@H](C(C)C)C(=O)N3CCC[C@H]3C(=O)N(C)CC(=O)N(C)[C@@H](C(C)C)C(=O)O[C@@H]2C)c(N)c1=O` [Dactinomycin] (I: T[dV]P[Sar][NMeV] / II: T[dV]P[Sar][NMeV]; ester I:1-I:C, II:1-II:C; linker I:N-II:N via Actinocin(9to1)): the “Effect (Clearance Screen)” value is “Suppressed HIV^b”.

On to `CO[C@H]1C[C@@H]2CC[C@@H](C)[C@@](O)(O2)C(=O)C(=O)N2CCCC[C@H]2C(=O)O[C@H]([C@H](C)C[C@@H]2CC[C@@H](OCCO)[C@H](OC)C2)CC(=O)[C@H](C)/C=C(\C)[C@@H](O)[C@@H](OC)C(=O)[C@H](C)C[C@H](C)/C=C/C=C/C=C/1C` [Everolimus], for which the “Effect (Clearance Screen)” value is on record as “Suppressed HIV^b”.

For the compound `CCCS(=O)(=O)Nc1ccc(F)c(C(=O)c2c[nH]c3ncc(-c4ccc(Cl)cc4)cc23)c1F` [Vemurafenib], the “Effect (Clearance Screen)” value is “Suppressed HIV^b”.

As for `O=P1(NCCCl)OCCCN1CCCl` (centres unmarked) [Ifosfamide], the “Effect (Clearance Screen)” value is on record as “Suppressed HIV^b”.

On to `N.N.[Cl][Pt][Cl]` [Cisplatin], for which the “Effect (Clearance Screen)” value is “Suppressed HIV^b”.

Take `Cc1[nH]nc2ccc(-c3cncc(OC[C@@H](N)Cc4ccccc4)c3)cc12` [A-674563]: the “Effect (Clearance Screen)” value is “Suppressed HIV^b”.

The target in the next test is p110γ (Homo sapiens, UniProt P48736).
Sequence of p110γ (P48736 whole entry, species assumed): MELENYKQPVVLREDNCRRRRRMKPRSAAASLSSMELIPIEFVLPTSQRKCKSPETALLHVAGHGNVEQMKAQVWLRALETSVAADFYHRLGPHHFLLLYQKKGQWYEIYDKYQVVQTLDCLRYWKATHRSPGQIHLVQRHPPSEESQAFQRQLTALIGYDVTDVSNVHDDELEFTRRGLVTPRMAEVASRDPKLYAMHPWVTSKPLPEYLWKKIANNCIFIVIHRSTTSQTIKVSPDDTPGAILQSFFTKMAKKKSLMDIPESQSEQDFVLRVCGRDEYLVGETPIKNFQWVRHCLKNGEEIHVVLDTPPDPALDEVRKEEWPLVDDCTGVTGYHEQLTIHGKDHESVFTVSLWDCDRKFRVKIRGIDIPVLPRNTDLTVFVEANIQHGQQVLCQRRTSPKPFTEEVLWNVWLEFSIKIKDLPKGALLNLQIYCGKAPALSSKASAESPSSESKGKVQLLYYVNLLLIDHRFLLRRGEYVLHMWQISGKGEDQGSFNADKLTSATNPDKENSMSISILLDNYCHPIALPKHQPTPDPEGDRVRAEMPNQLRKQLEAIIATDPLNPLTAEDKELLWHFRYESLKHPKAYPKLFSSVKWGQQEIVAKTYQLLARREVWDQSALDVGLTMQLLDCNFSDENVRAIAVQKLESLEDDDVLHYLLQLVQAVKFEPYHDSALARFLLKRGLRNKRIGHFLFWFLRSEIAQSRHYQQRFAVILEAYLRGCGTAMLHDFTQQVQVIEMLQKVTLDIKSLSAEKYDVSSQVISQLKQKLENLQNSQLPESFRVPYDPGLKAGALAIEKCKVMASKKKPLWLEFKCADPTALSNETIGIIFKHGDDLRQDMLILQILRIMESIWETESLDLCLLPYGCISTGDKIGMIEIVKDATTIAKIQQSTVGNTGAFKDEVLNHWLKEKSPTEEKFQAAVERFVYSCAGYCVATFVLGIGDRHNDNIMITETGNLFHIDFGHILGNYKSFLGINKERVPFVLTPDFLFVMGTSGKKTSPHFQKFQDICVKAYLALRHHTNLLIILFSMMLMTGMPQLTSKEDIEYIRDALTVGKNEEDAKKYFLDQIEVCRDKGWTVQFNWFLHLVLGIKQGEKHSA
Experiment: not given
Particulars: cited from earlier work.
For `Cc1ccc([N+](=O)[O-])cc1S(=O)(=O)N(C)/N=C/c1cnc2ccc(Br)cn12` [PIK-75], the IC50 was 0.076 µM.
